Measurements from ChEMBL document CHEMBL1201862, “PubChem BioAssay data set” (2004).
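Interpolation was linear, between the two tested concentrations surrounding the appropriate level; five concentrations were tested over 48 hours in 96-well plates. Here, GI50 denotes the concentration required for 50% inhibition of growth.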 Activity calls are given as the source filed them. Rule as the data show it: active = GI50 up to about 1.1 µM and inactive = higher.

Key:
Test in all cases: DTP human tumour cell line panel, 48 h
BT-549 = test system: BT-549
MDA-N = test system: MDA-N
SNB-78 = test system: SNB-78
M19-MEL = test system: M19-MEL
LXFL 529 = test system: LXFL 529
XF498 = test system: XF498
DLD-1 = test system: DLD-1
DMS-273 = test system: DMS-273
RXF 631 = test system: RXF 631

Structure (SMILES)	GI50 (BT-549)	GI50 (MDA-N)	further results
COc1ccc(-c2cc(-c3ccc(Nc4ccnc5cc(Cl)ccc45)cc3)[nH]c(=O)c2C#N)c2ccccc12	16.4 µM (inactive)	2.01 µM (inactive)	
CCOC(=O)c1cc(=O)n(C)c(=O)n1C			GI50 (SNB-78): > 100 µM (inactive); GI50 (M19-MEL): > 100 µM (inactive); GI50 (LXFL 529): > 100 µM (inactive); GI50 (XF498): > 100 µM (inactive); GI50 (DLD-1): > 100 µM (inactive); GI50 (DMS-273): > 100 µM (inactive)
O=C1C(Br)=CC2(C=C1Br)CCNC1=C2C(=O)c2ncccc2C1=O	1.42 µM (inactive)	0.183 µM (active)	
OCC(O)CNc1ncnc2ccccc12 (stereo unspecified)	> 100 µM (inactive)	> 100 µM (inactive)	
COc1c(C)c(C/C=C(\C)CCCCO[Si](C(C)C)(C(C)C)C(C)C)c(OC)c2ccccc12	> 100 µM (inactive)	> 100 µM (inactive)	
N#Cc1c(-c2ccc(Cl)cc2)c(C#N)c(=O)n(NS(=O)(=O)c2ccccc2)c1-c1ccccc1	> 25 µM (inactive)	> 25 µM (inactive)	
CC1=CC(=O)C(C(O)(C(F)(F)F)C(F)(F)F)C(C)(C)C1 (stereo unspecified)		> 10 µM (inactive)	
COc1ccc(/C=C2\OC(=O)C(Cl)=C2c2ccc(OC)c(Cl)c2)cc1		17.7 µM (inactive)	
Nc1nc(N)c2cc(-c3ccccc3)cnc2n1	16.6 µM (inactive)	9.86 µM (inactive)	
CCOC(=O)C1(F)S(=O)(=O)OCCOS1(=O)=O	> 100 µM (inactive)	> 100 µM (inactive)	
Cc1ccc(S(=O)(=O)OI(O)CC(F)(F)F)cc1	> 100 µM (inactive)		
CCOP(=O)(OCC)/C(C#N)=C/c1ccnc2ccccc12	23.9 µM (inactive)	21.9 µM (inactive)	
S=c1[nH]c2ccc(Br)cc2c(=S)s1	29.9 µM (inactive)	23.4 µM (inactive)	
CC1=C(/C=C/C(C)=C/C=C/C(C)=C/C(=O)OCC2OC(n3cc(F)c(=O)[nH]c3=O)CC2OC(=O)/C=C(C)/C=C/C=C(C)/C=C/C2=C(C)CCCC2(C)C)C(C)(C)CCC1 (stereo unspecified)	29.6 µM (inactive)	10.4 µM (inactive)	
COc1c(C)c2c(c3c1c(=O)c1ccccc1n3C)C=CC(C)(C)O2			GI50 (SNB-78): 31.7 µM (inactive); GI50 (M19-MEL): 31.7 µM (inactive); GI50 (LXFL 529): 26 µM (inactive); GI50 (XF498): 24.9 µM (inactive); GI50 (DLD-1): 34.5 µM (inactive); GI50 (DMS-273): 14.8 µM (inactive)
Nn1c(S)nnc1CCCCCCCCc1nnc(S)n1N	> 100 µM (inactive)	> 100 µM (inactive)	

Structure (SMILES)	GI50 (BT-549)	GI50 (MDA-N)	further results
O=C(O)c1ccccc1Sc1ccccc1[N+](=O)[O-]	> 100 µM (inactive)	> 100 µM (inactive)	
COc1ccc(C(C)Nc2cc(OC)c(OC)c(OC)c2)cc1 (stereo unspecified)			GI50 (SNB-78): 4.08 µM (inactive); GI50 (M19-MEL): 4.75 µM (inactive); GI50 (LXFL 529): 6.38 µM (inactive); GI50 (XF498): 6.89 µM (inactive); GI50 (DLD-1): 5.81 µM (inactive); GI50 (DMS-273): 1.82 µM (inactive)
N#C[C@](CO)(NC(=O)OCc1ccccc1)C(F)F	> 100 µM (inactive)		
O=S(=O)(Cc1ccccc1)c1nnc(S(=O)(=O)c2ccc(Cl)cc2)s1	20 µM (inactive)	18.1 µM (inactive)	
Nc1ncnc2c1ncn2C1OC(CO)C(O)C1NS(=O)(=O)c1ccccc1 (stereo unspecified)	> 100 µM (inactive)	> 100 µM (inactive)	
N#Cc1ccc(C2ON=C(c3ccccc3)N2C23CC4CC(CC(C4)C2)C3)cc1 (stereo unspecified)	5.66 µM (inactive)	> 10 µM (inactive)	
CCC(/C(=N\Nc1c(Cl)cc(Cl)cc1Cl)c1ccccc1)n1ccnc1C (stereo unspecified)			GI50 (SNB-78): 19.1 µM (inactive); GI50 (M19-MEL): 14.8 µM (inactive); GI50 (LXFL 529): 11.7 µM (inactive); GI50 (DLD-1): 4.22 µM (inactive); GI50 (RXF 631): 9.64 µM (inactive); GI50 (DMS-273): 4.6 µM (inactive)
Cc1cccc(Cl)c1NCC(O)CN1CCN(C)CC1 (stereo unspecified)	> 100 µM (inactive)	> 100 µM (inactive)	
Cn1cc(NC(=O)Nc2cc(C(=O)Nc3cc(C(=O)Nc4cc(S(=O)(=O)O)c5cc(S(=O)(=O)O)cc(S(=O)(=O)O)c5c4)n(C)c3)n(C)c2)cc1C(=O)Nc1cc(C(=O)Nc2cc(S(=O)(=O)O)c3cc(S(=O)(=O)O)cc(S(=O)(=O)O)c3c2)n(C)c1	> 100 µM (inactive)	> 100 µM (inactive)	
O=C(O)CCC(=O)OCN1C(=O)C2C3C=CC(C2C1=O)C1C2C(=O)N(COC(=O)CCC(=O)O)C(=O)C2C31 (stereo unspecified)			GI50 (SNB-78): > 100 µM (inactive); GI50 (M19-MEL): > 61.1 µM (inactive); GI50 (LXFL 529): > 100 µM (inactive); GI50 (XF498): > 100 µM (inactive); GI50 (DLD-1): > 57.7 µM (inactive); GI50 (DMS-273): > 43.2 µM (inactive)
O=C(O)Cc1cccc2c(=O)c3ccccc3oc12	> 100 µM (inactive)	> 100 µM (inactive)	
Cc1cn(C2CC(OP(=O)(O)OCC3OC(n4c[n+]([BH2-]C#N)c5c(=O)[nH]c(N)nc54)CC3O)C(CO)O2)c(=O)[nH]c1=O (stereo unspecified)		> 100 µM (inactive)	
CC(C)CCC[C@@H](C)C1CCC2[C@@H]3CCC4CC(CCC=C(c5cc(Cl)c(OC(=O)c6ccccc6)c(C(=O)O)c5)c5cc(Cl)c(OC(=O)c6ccccc6)c(C(=O)O)c5)CC[C@]4(C)C3CC[C@@]21C (stereo partly specified)	> 100 µM (inactive)	> 100 µM (inactive)	
Cc1cccc(NC(=O)c2cccc([N+](=O)[O-])c2O)c1C	30.2 µM (inactive)		GI50 (SNB-78): 85.5 µM (inactive); GI50 (M19-MEL): 21.9 µM (inactive); GI50 (LXFL 529): 34 µM (inactive); GI50 (XF498): 20.3 µM (inactive); GI50 (DLD-1): 27.3 µM (inactive); GI50 (DMS-273): 22.2 µM (inactive)
COc1cccc2c1[C@H](OC)[C@]13O[C@@]1(C2=O)[C@H](O)[C@H](C)[C@@](O)(C(=O)[C@@H]1O[C@H]1C)[C@@H]3O		0.265 µM (active)	
